# In patent US11359180B2, “Method for producing myocardial cells using synthetic peptide” (Toagosei Co., Ltd., priority 2015, dated 2022):
# B1: activin A: peptide having approximately 140 amino acid residues (R&D Systems, Cat. No. 338-AC-D50), used in the hepatocyte differentiation-inducing method (protein, UniProt P08476 311-426, looked up)
# Inhibin beta A chain: GLECDGKVNICCKKQFFVSFKDIGWNDWIIAPSGYHANYCEGECPSHIAGTSGSSLSFHSTVINHYRMRGHSPFANLKSCCVPTKLRPMSMLYYDDGQNIIKKDIQNMIVEECGCS
# modifications: Inhibin beta A chain
# notes: peptide having approximately 140 amino acid residues (R&D Systems, Cat. No. 338-AC-D50), used in the hepatocyte differentiation-inducing method
# Experiments:
# [1] = test system: iPS cells of human origin (clone 201B7); assay: Expression of myocardial cell marker genes by fluorescent cytoimmunostaining; type: cell-based; details: sample 1 addition section, 16th day after start of main culture
# Protocol: To check the state of expression of myocardial cell marker genes, cytoimmunostaining (fluorescent immunostaining) of proteins that are the gene products of myocardial marker genes was carried out on the cells in each of the test sections at the 16th day after the start of main culture. The expression of the following as myocardial marker genes was checked: myosin heavy chain (MHC), cardiac Troponin T (cTnT), tropomyosin (TM), and connexin 43 (Cx43).
# First, the cells in each test section were subjected to a fixing treatment, a permeabilization treatment, and a blocking treatment. This fixing treatment, permeabilization treatment, and blocking treatment were carried out using a commercial kit (Image-iT Fixation/Permeabilization Kit, Life Technologies Corporation) in accordance with the manual provided with the kit.
# Specifically, the culture medium was first removed from the culture vessel (12-well plate) for the cells in each test section on the 16th day after the start of the main culture (16th day after the addition of the myocardial cell differentiation-inducing synthetic peptide). The fixing treatment was performed by adding the fixative solution (Fixative Solution, contained 4 volume % formaldehyde in PBS (pH=7.3)) from the kit at 0.4 mL/well and holding at quiescence for 15 minutes at room temperature. This was followed by washing 3 times using the wash buffer (Wash Buffer, PBS, pH=7.4) from the kit at 0.5 mL/well.
# A permeabilization treatment was then performed by adding the permeabilization solution (Permeabilization solution, contained 0.5 volume % Triton (registered trademark) X-100) from the kit at 0.5 mL/well and holding at quiescence for 15 minutes at room temperature. This was followed by washing three times with the wash buffer ([…]) from the kit.
# After the cells in each well had been washed with PBS-T (PBS containing 0.25 volume % Triton (registered trademark) X-100), a blocking treatment was performed by adding the blocking solution (Blocking Solution, contained 3 weight/volume % (w/v %) BSA fraction V in DPBS (Dulbecco's PBS) (pH=7.4)) from the kit to each well and standing at quiescence overnight (about 18 hours) at 4° C.
# After this blocking treatment, the primary antibody dilutions were added to each well followed by holding at quiescence for 2 hours at room temperature; the primary antibody dilutions were prepared by the dilution of the specified primary antibodies to a suitable antibody concentration using the blocking solution used in the blocking treatment.
# The following primary antibodies were used as these primary antibodies: anti-myosin heavy chain antibody, anti-cardiac Troponin T antibody, anti-tropomyosin antibody, and anti-connexin 43 antibody. […]
# [2] = test system: iPS cells of human origin (clone 201B7); assay: Induction of myocardial cell differentiation: microscopic observation of beating cells; type: cell-based
# From the text: Pluripotent stem cells were induced to myocardial cells (production of myocardial cells) using the myocardial cell differentiation-inducing synthetic peptide obtained in Example 1 (sample 1). Specifically, pluripotent stem cells were induced to myocardial cells (production of myocardial cells) by using the myocardial cell differentiation-inducing synthetic peptide obtained in Example 1 (sample 1) in place of activin A in the method for inducing the differentiation of pluripotent stem cells into hepatocytes. The method described in Non Patent Literature 3 was adopted for the method for inducing the differentiation of pluripotent stem cells into hepatocytes. iPS cells of human origin (clone designation: 201B7, source: Takahashi K et al., Cell, 131, 861-872 (2007)) were used for the test cells. These iPS cells were supplied by the Center for iPS Cell Research and Application of Kyoto University.
# The iPS cells, which were the test cells, were seeded to 12-well plates coated with an extracellular matrix (Geltrex (registered trademark) in the present case). Using mTeSR1 (STEMCELL Technologies Inc.) for the culture medium, they were cultured (precultured) in a CO2 incubator under conditions of 37° C. and 5% CO2 until an appropriate cell density (here, a confluence of about at least 60% and not more than 70%) had been reached. Medium exchange was performed each day during this preculture.
# The sample 1 obtained in Example 1 was then added to the culture medium and cultivation was carried out (main culture). Thus, the pluripotent stem cells were induced to myocardial cells (production of myocardial cells) by using the myocardial cell differentiation-inducing synthetic peptide obtained in Example 1 (sample 1) in place of the activin A in the method for inducing the differentiation of pluripotent stem cells into hepatocytes that is given in Non Patent Literature 3. The following were set up in the present example: a test section (referred to below as the activin A addition section) that used the same method as the method given in Non Patent Literature 3 for inducing the differentiation of pluripotent stem cells to hepatocytes using activin A; a test section (referred to below as the sample 1 addition section) that used the myocardial cell differentiation-inducing synthetic peptide of sample 1 in place of the activin A in the activin A addition section; and a control section to which neither the activin A nor the myocardial cell differentiation-inducing synthetic peptide was added. The specifics are given below. The culture conditions in this main culture are given schematically in FIG. 1.
# (§1) First, the culture medium was exchanged to base medium 1 in the activin A addition section, the sample 1 addition section, and the control section. In the activin A addition section, activin A (R&D Systems, Inc., Cat. No. 338-AC-D50) was added to the culture vessel (i.e., to the base medium 1) in a quantity that provided an activin A concentration in the culture medium of 100 ng/mL. […]
# as §1, with “After this cultivation for 2 days (i.e., the 2nd day after the start of the main culture), the” for “First, the”, “medium 2” for “medium 1”, “A” for “A (R&D Systems, Inc., Cat. No. 338-AC-D50)”, “medium 2)” for “medium 1)”
Molecule,expression of cardiac Troponin T in comparison to control section ([1]; FIG. 2),expression of myosin heavy chain in comparison to control section ([1]; FIG. 2),expression of connexin 43 in comparison to control section ([1]; FIG. 3),expression of tropomyosin in comparison to control section ([1]; FIG. 3),"number of beating cells present (abundance ratio) compared to 9th day ([2]; sample 1 addition section, 8 μM, 10th day after start of main culture)","number of beating cells ([2]; sample 1 addition section, 8 μM, 17th day after start of main culture, 12-well plate)","number of beating cells (abundance ratio), average ([2]; sample 1 addition section, repeated tests, 17th day after start of main culture)","probability that at least 1 beating cell was present per 1 well ([2]; sample 1 addition section, tests independently repeated a plurality of times, 12-well plate)","presence of beating cells ([2]; activin A addition section, 100 ng/mL, daily observation during main culture)"
LLLLLLVGLTAPAGKKRTLRKNDRKKR [sample 1],substantially increased,substantially increased,substantially increased,substantially increased,had increased,approximately 38 beating cells/well,about 40 per 1 well of the 12-well plate,at least 95%,
B1,,,,,,,,,could not be confirmed
